# Source: BindingDB's records for patent US20250179023 (Abbisko Therapeutics, 2025)
# Target: Programmed cell death 1 ligand/protein 1 (Homo sapiens, UniProt Q9NZQ7)
# Assay: PD1-PDL1 HTRF Binding Activity Test
# Method: The effect of compounds of the examples of the present invention on the PD-1/PD-L1 interaction was determined by the PD-1/PD-L1 binding assay kit from Cisbio (#64ICP01PEG or 64ICP01PEH).
# Chain of Programmed cell death 1 ligand/protein 1 (Q9NZQ7 whole entry): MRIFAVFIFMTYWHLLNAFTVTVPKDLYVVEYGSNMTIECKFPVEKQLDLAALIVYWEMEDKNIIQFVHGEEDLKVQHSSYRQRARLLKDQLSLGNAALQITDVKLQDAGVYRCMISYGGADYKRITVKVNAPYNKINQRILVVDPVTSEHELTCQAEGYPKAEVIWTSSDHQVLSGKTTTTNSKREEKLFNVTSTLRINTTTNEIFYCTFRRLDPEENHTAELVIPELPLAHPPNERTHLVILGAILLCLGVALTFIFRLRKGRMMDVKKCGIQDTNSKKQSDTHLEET
# Chain of Programmed cell death 1 ligand/protein 1 (Q15116 whole entry, further chain): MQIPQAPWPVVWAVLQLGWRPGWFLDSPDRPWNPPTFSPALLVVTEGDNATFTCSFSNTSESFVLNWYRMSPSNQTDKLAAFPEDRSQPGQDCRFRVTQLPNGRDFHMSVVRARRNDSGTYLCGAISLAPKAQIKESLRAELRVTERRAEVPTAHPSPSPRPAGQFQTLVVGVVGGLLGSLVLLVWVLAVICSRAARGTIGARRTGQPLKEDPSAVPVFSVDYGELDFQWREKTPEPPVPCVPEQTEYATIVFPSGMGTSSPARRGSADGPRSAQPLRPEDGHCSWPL
smiles,measurement,value
"Cc1c(NC(=O)c2cc(C3CC3)c(CNCCC34CCC(C(=O)O)(CC3)C4)cn2)cccc1-c1cccc(NC(=O)c2cc(C3CC3)c(CNC34CCC(C(=O)O)(CC3)C4)cn2)c1C [US20250179023, Example 5]",IC50,4.19 nM
